Legend:
male mice = experiment: Conditioned place preference (rCPP, mCPP); assay type: in vivo, NMRI mice
Text: (§1) Male and female Rcc Han Wistar rats (8–12 weeks old at arrival; Envigo, Horst, Netherlands) were used for the alcohol drinking and locomotor activity experiments as they drink alcohol to intoxicating levels. For in vivo microdialysis studies male Wistar rats (Charles River, Calco, Italy) were used as they display robust dopamine levels in NAc shell after alcohol injection. […] All rodents were allowed to habituate to the animal facility at least one week before they entered an experiment. During housing (20 °C with 50% humidity) the rodents had free access to water and standard chow (Teklad Rodent Diet; Envigo, Madison, WI, USA). These experiments were approved by the Ethics Committee for Animal Experiments (ethical numbers: 1457/18, 3276/18, 1556/18, 3348/20; Gothenburg, Sweden) and followed the ARRIVE guidelines. The sample sizes of each experiment were based on previous experience in which statistical significance has been detected. The person who conducted the experiments, and analyzed the collected data was aware of the treatment allocation. Only preset exclusion criteria were used when analyzing the data obtained in attempts to exclude confounding factors in analyzing data. In the alcohol drinking experiments leaking bottles and low alcohol consumption (<3.0 g/kg for males; <3.5 g/kg for females) were preset exclusion criteria. The preset exclusion criterion in the ex vivo HPLC-EC, ELISA, and recombinant cell line experiments was contamination of the sample. Misplaced probes, technical difficulties, and damages to the surgery area were preset exclusion criteria for the in vivo microdialysis experiment. Intra-cage male aggression was the preset exclusion criterion for the locomotor activity and CPP experiments. To minimize tentative confounding factors, the order of treatments was stratified, with treatments being mixed for each animal cage and for each apparatus used as well as balancing the alcohol intake between future treatment groups. Although each experiment only was performed once, they were separated over different laboratory days with equal data obtained between sessions.
Alcohol (95%; Solveco AB, Stockholm, Sweden) was either diluted to a 20% solution using tap water (drinking experiment) or to a 15% (w/v) solution with 0.9% NaCl. Alcohol was in the behavioral and neurochemical tests injected (intraperitoneally, IP) 5 min before the test. A dose of 1.75 g/kg was used in male mice as it causes robust locomotor stimulation and induces a CPP [37–39], and 2 g/kg was used for rats as it elevates the dopamine levels in NAc shell. DAG (Tocrise Bioscience, Bristol, UK) was dissolved in 0.9% NaCl in doses (0.25–2 mg/kg) known to reduce food intake and DAG was injected IP). […]

male and female rats = experiment: Intermittent-access alcohol drinking, acute DAG injection; assay type: in vivo, Rcc Han Wistar rats; settings: for intake of alcohol, water, total fluid, food, alcohol preference, body weight: male and female rats
Text: as §1
Alcohol (95%; Solveco AB, Stockholm, Sweden) was either diluted to a 20% solution using tap water (drinking experiment) or to a 15% (w/v) solution with 0.9% NaCl. Alcohol was in the behavioral and neurochemical tests injected (intraperitoneally, IP) 5 min before the test. A dose of 1.75 g/kg was used in male mice as it causes robust locomotor stimulation and induces a CPP [37–39], and 2 g/kg was used for rats as it elevates the dopamine levels in NAc shell. DAG (Tocrise Bioscience, Bristol, UK) was dissolved in 0.9% NaCl in doses (0.25–2 mg/kg) known to reduce food intake and DAG was injected IP).
Individually housed rats had intermittent access to an alcohol (20%) bottle and a water bottle, three 24-h sessions per week, and only water bottles the remaining days. A reversed light/dark cycle was used, and the bottles were changed when the lights went out. First, the rats consumed alcohol for 10 weeks (baseline drinking), where the bottles and food were weighed daily and the body weight weekly. During treatments, the bottles and food were weighed at 4- and/or 24-h and the body weight was measured daily. In the first drinking experiment, the potential of DAG to reduce alcohol consumption was tested and therefore, vehicle or DAG (1 mg/kg) was acutely injected into male (n = 12) or female (n = 12) rats. The second drinking experiment was conducted to establish the effects of lower DAG doses on alcohol intake. Therefore, separate male (n = 18) or female (n = 18) rats, were acutely injected with lower DAG doses (0.5 or 0.25 mg/kg) or vehicle. The third alcohol drinking experiment evaluated the ability of repeated DAG injections to lower alcohol drinking. Therefore, additional male (n = 24) and female (n = 24) rats were injected with either vehicle or DAG (1 mg/kg) at three alcohol-drinking sessions. […]

[1] = cited from earlier work
Text: Although DAG altered the neurotransmission of the VTA, the neuronal activi ... || Although DAG reduced alcohol consumption in rats of both sexes, some sex differences were evident. Specifically, after acute DAG treatment the decline in alcohol consumption was evident at the 24-h time point for males and the 4-h time point for females. Moreover, after repeated DAG treatment the decline was similar at each treatment session for males whereas it escalates over time in females.

[2] = female rats, acute DAG 1.0 mg/kg IP, n = 5 vs vehicle n = 6, 4 h
[3] = male rats, acute DAG 1.0 mg/kg IP, n = 5 vs vehicle n = 6, 4 h
[4] = male rats, acute DAG 1.0 mg/kg IP, n = 5 vs vehicle n = 6, 24 h

With “des-acyl ghrelin (GSSFLSPEHQRVQQRKESKKPPAKLQPR; Ghrelin-28 non-acylated; UniProt Q9UBU3 24-51, looked up) [DAG, non-octanoylated form of ghrelin; purchased from Tocris (printed Tocrise Bioscience), dissolved in 0.9% NaCl]” the “memory of alcohol reward (mCPP)” value (male mice; DAG 1 mg/kg at post-conditioning) was “did not reduce the memory of alcohol reward (mCPP, t14 = 1.36, P = 0.1955)”, the “reward of alcohol in conditioned place preference (rCPP)” value (male mice; DAG 1 mg/kg during conditioning with alcohol) was “attenuated the reward of alcohol in the conditioned place preference test (rCPP, t12 = 2.69, P = 0.0197)” and the rCPP per se (male mice; DAG 1 mg/kg, only vehicle control instead of alcohol) was “did not influence rCPP (t14 = 0.64, P = 0.5304) per se”. For the same substance, the mCPP per se (male mice; DAG 1 mg/kg, vehicle during conditioning) was “DAG did neither influence locomotor activity, rCPP, mCPP nor accumbal dopamine per se”, the 4-h alcohol intake (male and female rats; [2]) was “decreased the 4-h alcohol intake (t9 = 2.05; P = 0.0351)” and the “preference for alcohol, 4-h” value (male and female rats; [2]) was “reduced it at the I 4-h (t9 = 2.16; P = 0.0294)”. The 4-h food intake (male and female rats; female rats, acute DAG 1.0 mg/kg IP, n = 5 vs vehicle n = 6, 4 h (first statistic)) was “At neither time point, DAG affected the K, L food intake (t9 = 0.34; P = 0.7414”, the 24-h alcohol intake (male and female rats; female rats, acute DAG 1.0 mg/kg IP, n = 5 vs vehicle n = 6, 24 h) was “did not alter the 24-h drinking (t9 = 0.22; P = 0.8331)” and the 24-h food intake (male and female rats; female rats, acute DAG 1.0 mg/kg IP, n = 5 vs vehicle n = 6, 24 h (second statistic)) was “At neither time point, DAG affected the K, L food intake (t9 = 0.34; P = 0.7414 and t9 = 1.12; P = 0.2909, respectively)”. The “intake of alcohol, water, total fluid, food, alcohol preference, body weight” value (male and female rats; acute DAG 0.25 mg/kg IP, n = 6) was “did not alter the intake of alcohol, water, total fluid, food intake alcohol preference or body weight in male or female rats”, the “intake of alcohol, water, total fluid, food, alcohol preference, body weight” value (male and female rats; acute DAG 0.5 mg/kg IP, n = 6 (males n = 5)) was “did not alter the intake of alcohol, water, total fluid, food intake alcohol preference or body weight in male or female rats” and the 4-h alcohol intake (male and female rats; [3]) was “did not alter the A 4-h alcohol intake (t9 = 0.36; P = 0.7264)”. The 4-h food intake (male and female rats; [3]) was “did not affect the E 4-h food intake (t9 = 1.51; P = 0.1657)”, the “preference for alcohol, 4-h” value (male and female rats; [3]) was “did not alter the C preference for alcohol at the 4-h time point (t9 = 1.84; P = 0.0983)” and the 24-h alcohol intake (male and female rats; [4]) was “reduced the alcohol intake at the 24-h time point (t9 = 2.35; P = 0.0432)”. For the same substance, the 24-h food intake (male and female rats; [4]) was “increased the 24-h feeding (t9 = 2.64; P = 0.0271)”, the “preference for alcohol, 24-h” value (male and female rats; [4]) was “decreased it at 24 h (t9 = 3.00; P = 0.0149)” and the elimination pathway ([1]; ref [63], [64]) was “renal clearance has been suggested to be a major pathway for the elimination of DAG”. For the same substance, the brain entry ([1]; systemic DAG, ref [52]) was “enters the brain through non-saturable transmembrane diffusion”.

— PMC11224403, “Des-acyl ghrelin reduces alcohol intake and alcohol-induced reward in rodents” (Translational Psychiatry, 2024)
